The values that follow come from US4352928A, “5,6-Alkylenepyrimidine derivative” (Mitsubishi Yuka Pharmaceutical Co., Ltd., priority 1979, dated 1982).

The test system of one series is inflammation. Put plainly: Anti-Inflammatory Effect (carrageenan-induced swelling of the hind foot). The series is classed as in vivo, Wister male rat. The settings on record: po, rat, 3 hours after carrageenan, read-out: Suppressive Ratio; for inhibition in vivo at 50 mg/kg: 50 mg/kg p.o. Here is the method: A Wister male rat having the weight ranging from 120 to 150 g. was starved for 18 hours, and to this was then orally administered the test sample. After lapse of one hour, 0.05 ml. of 1% solution of carrageenan was administered through subcutaneous injection in the plantar surface of the right hind foot to produce inflammation. The volume of the right hind foot was measured prior to the injection of carrageenan and again at 3 hours after the administration through injection. The ratio of the increase of the foot volume was calculated to express in percent based on the measured values. The so calculated ratio was compared with the calculated ratio on the control data to give the dropsical swelling suppressive ratio.

The test system of series [1] is Blood Platelet Aggregation. Briefly: Blood Platelet Aggregation Suppressive Effect (collagen-induced, platelet rich plasma). The class given is cell-based, rabbit. The settings on record: Oryctolagus cuniculus, 2 min, read-out: Suppressive Ratio. The method, then:
A rabbit was starved for 18 hours, and the veinal blood was taken from the carotid artery of the rabbit. […] The mixture was centrifuged at 200 G for 15 minutes to collect the platelet rich plasma (PRP). The residual portion was further centrifuged at 2000 G for 15 minutes to collect the platelet poor plasma (PPP). Subsequently, 250 μl. of the PRP was placed in a cuvette, and the methanol solution containing the test sample of the concentration set forth in Table 4 was added. Incubation was carried out for 2 minutes, and a collagen solution was added to the incubated solution to result in the final concentration of 3 μg./ml. so as to induce aggregation. The condition of the aggregation was measured in the Aggregation Meter (available from Shenco Co., Ltd.) and recorded.
The suppressive ratio was calculated based on the following equation. [formula] A: Maximum aggregation ratio observed when a solvent only was added. B: Maximum aggregation ratio observed when the test sample was added.

Another series deals with blood sugar level. Briefly: Blood Sugar Level Lowering Effect (2-deoxy-D-glucose induced high blood sugar level). Particulars: po, mouse, 1 hour after 2-deoxy-D-glucose 500 mg/kg, read-out: Suppressive Ratio; for inhibition in vivo at 30 mg/kg: 30 mg/kg p.o. The series is classed as in vivo, ICR-JCL mouse, male. The method, then:
To a ICR-JCL mouse, male, having the weight ranging from 25 to 30 g. was orally administered the test sample and, after 15 minutes, 2-deoxy-D-glucose was administered into the cavity of the mouse in the amount of 500 mg/kg to induce a high blood sugar level. The blood was taken after 1 hour, and the blood sugar concentration was determined in the blood serum obtained upon centrifugation, by means of a commercially available test kit (trade name: Glucomesser, produced by Tokyo Zooki Kagaku Co., Ltd., Japan). The suppressive ratio was calculated based on the following equation. [formula] A: Blood sugar level of the positive control group B: Blood sugar level of the negative control group
C: Blood sugar level of the test sample administered group

The subject of a further series is blood pressure. Put plainly: Anti-Hypertensive Effect (spontaneously hipertensive rat). The series is classed as in vivo, male. Particulars: SHR. The method, then:
To a spontaneously hipertensive rat (SHR), male, aged 20-30 weeks, blood pressure under contraction 150 mmHg. was orally administered the test sample. The mean blood pressure of the rat was measured under non-anesthetic conditions at 1, 3, 6 and 24 hours after the administration via cannula inserted into the main artery in the abdomen.

For a further series, the system named is ICR-JCL mouse. Put plainly: Acute Toxicity on Mouse. More on the design: species or system male. Particulars: in vivo, po. Here is the method:
A ICR-JCL mouse, male, was starved for 18 hours, and to the mouse was orally administered the test sample suspended in 1% tragacantha solution. The condition was observed during one week after the administration and the LD50 was calculated.

For series [2] the following is noted: Japanese Patent Provisional Publication No. 35-12079/1960; cited from earlier work.
For series [3] the following is noted: Biochem. & Biophys. Res. Commu., 34, 495 (1969); cited from earlier work.
For series [4] the following is noted: Japanese Patent Provisional Publication No. 35-12079/1960; cited from earlier work. This is another data set of the same source.
Where [5] appears, read: 100 μM, rabbit PRP, collagen 3 μg/ml.

Structures are written as SMILES. Where two headings read alike, the source gives them in different places.

For the compound `Nc1nc(N2CCN(C(=S)Nc3ccccc3)CC2)nc2c1CCCC2` [compound 23, 2-(Phenylthiocarbamoylpiperazino)-4-amino-5,6-tetramethylenepyrimidine], the inhibition in vivo at 50 mg/kg with inflammation is 23.9%.
On to `CN1CCN(c2nc3c(c(N4CCCC4)n2)CCCC3)CC1` [compound 46, 2-(4-Methylpiperazino)-4-pyrrolidino-5,6-tetramethylenepyrimidine], for which, in series [1] (rabbit PRP, collagen 3 μg/ml), the inhibition at 30 µM stood at 100%.
For the compound `Nc1nc(N2CCN(Cc3ccccc3)CC2)nc2c1CCC2` [Compound No. 56, 2-(4-Benzylpiperazino)-4-amino-5,6-trimethylenepyrimidine], the inhibition in vivo at 30 mg/kg in the series on blood sugar level amounted to 44.5%.
On the same count and under the same terms, in the case of `CN(C)c1nc(N2CCNCC2)nc2c1CCCC2` [compound 41, 2-Piperazino-4-dimethylamino-5,6-tetramethylenepyrimidine] it was 50.8%.
As for `Nc1nc(N2CCN(Cc3ccccc3)CC2)nc2c1CCCC2` [Compound No. 3, 2-(4-Benzylpiperazino)-4-amino-5,6-tetramethylenepyrimidine], in the series with inflammation, the inhibition in vivo at 50 mg/kg was 46%.
On the same count and under the same terms, the same measure for `Nc1nc(N2CCN(c3ccccc3)CC2)nc2c1CCCC2` [compound 28, 2-(4-Phenylpiperazino)-4-amino-5,6-tetramethylenepyrimidine]: 52.7%.
Take `O=CN1CCN(c2nc3c(c(N4CCOCC4)n2)CCCC3)CC1` [compound 47, 2-(4-Formylpiperazino)-4-morpholino-5,6-tetramethylenepyrimidine]: in series [1] (rabbit PRP, collagen 3 μg/ml), the inhibition at 30 µM stood at 100%.
The same measure, in the same setting: the same measure for `C1CCc2c(nc(N3CCNCC3)nc2N2CCCC2)C1` [compound 45, 2-Piperazino-4-pyrrolidino-5,6-tetramethylenepyrimidine]: 72%.
As for `Nc1nc(N2CCNCC2)nc2c1CCCCC2` [Compound No. 63, 2-Piperazino-4-amino-5,6-pentamethylenepyrimidine], the inhibition in vivo at 30 mg/kg with blood sugar level worked out at 78.9%.
With `Nc1nc(N2CCNCC2)nc2c1CCC2` [Compound No. 54, 2-Piperazino-4-amino-5,6-trimethylenepyrimidine], the inhibition in vivo at 30 mg/kg with blood sugar level turned out to be 107%.
As to `Nc1nc(N2CCN(c3ccccn3)CC2)nc2c1CCCC2` [Compound No. 32, 2-[4-(2-Pyridyl)piperazino]-4-amino-5,6-tetramethylenepyrimidine], in the series with blood sugar level, the inhibition in vivo at 30 mg/kg is 60.1%. Further, the “Change of Blood Pressure at 3 Hours after Administration” value (“Change of Blood Pressure at 3 Hours” below) in the series on blood pressure (50 mg/kg p.o.) is on record as -18 mmHg.
`OCCNc1nc(N2CCNCC2)nc2c1CCCC2` [compound 51, 2-Piperazino-4-(2-hydroxyethyl)amino-5,6-tetramethylenepyrimidine]: the inhibition at 100 µM in series [1] (setting [5]) worked out at 89.1%.
For `CC(=O)Oc1ccccc1C(=O)O` [Aspirin, reference compound], the inhibition at 100 µM in series [1] stood at 100%.
For `Nc1nc(N2CCN(C(=O)C=Cc3ccco3)CC2)nc2c1CCCC2` [Compound No. 14, 2-[4-{3-(Furan-2-yl)acryloyl}piperazino]-4-amino-5,6-tetramethylenepyrimidine], in the series on inflammation (25 mg/kg p.o.), the inhibition in vivo at 25 mg/kg is 53.9%. For the same compound, in the series with blood sugar level, the inhibition in vivo at 30 mg/kg turned out to be 60.2%.
With `CN1CCN(c2nc3c(c(N4CCOCC4)n2)CCCC3)CC1` [compound 49, 2-(4-Methylpiperazino)-4-morpholino-5,6-tetramethylenepyrimidine], the inhibition at 30 µM in series [1] (rabbit PRP, collagen 3 μg/ml) came out at 95.2%. Also, the LD50 (as a rule, the dose expected to kill half of the subjects tested) with ICR-JCL mouse is recorded as over 500 mg/kg.
`C=CCN1CCN(c2nc(N)c3c(n2)CCCC3)CC1` [Compound No. 4, 2-(4-Allylpiperazino)-4-amino-5,6-tetramethylenepyrimidine]: the inhibition in vivo at 50 mg/kg in the series on inflammation came out at 51.2%.
In the case of `CNc1nc(N2CCNCC2)nc2c1CCCC2` [Compound No. 35, 2-Piperazino-4-methylamino-5,6-tetramethylenepyrimidine], the inhibition at 100 µM in series [1] (setting [5]) came out at 87.7%. Besides, the inhibition in vivo at 30 mg/kg with blood sugar level came to 77.4%.
On to `Nc1nc(N2CCN(C(=O)Nc3ccccc3)CC2)nc2c1CCCC2` [Compound No. 18, 2-(4-Phenylcarbamoylpiperazino)-4-amino-5,6-tetramethylenepyrimidine], for which the inhibition in vivo at 50 mg/kg in the series with inflammation came out at 33.8%. The “Change of Blood Pressure at 3 Hours” value with blood pressure (50 mg/kg p.o.) is listed as -17 mmHg.
In the case of `Nc1nc(N2CCN(C(=O)C=Cc3ccccc3[N+](=O)[O-])CC2)nc2c1CCCC2` [compound 11, 2-[4-(2-Nitrocinnamoyl)piperazino]-4-amino-5,6-tetramethylenepyrimidine], the “Change of Blood Pressure at 3 Hours” value in the series on blood pressure (50 mg/kg p.o.) is on record as -17 mmHg.
In the case of `Nc1nc(N)c2c(n1)CCCC2` [2,4-diamino-5,6-tetramethylenepyrimidine], the antibacterial activity entry in series [2] is “antibacterial activity”. Also, in series [3], the antagonism against pteridine result was “has antagonism against pteridine”. Besides, the carcinostatic effect result in series [4] is given as “has a carcinostatic effect”.
Regarding `Nc1nc(N2CCNCC2)nc2c1CCCC2` [Compound No. 1, 2-Piperazino-4-amino-5,6-tetramethylenepyrimidine], the inhibition at 100 µM in series [1] (setting [5]) is 100%. Also, the inhibition in vivo at 30 mg/kg in the series with blood sugar level was 67.8%.
Regarding `Nc1nc(N2CCN(c3ccc(Cl)cc3)CC2)nc2c1CCCC2` [compound 29, 2-[4-(4-Chlorophenyl)piperazino]-4-amino-5,6-tetramethylenepyrimidine], the inhibition in vivo at 50 mg/kg with inflammation stood at 46.8%. The inhibition in vivo at 10 mg/kg in the series on blood sugar level (10 mg/kg p.o.) turned out to be 49.1%.
Take `Nc1nc(N2CCN(C(=O)C=Cc3ccccc3)CC2)nc2c1CCCC2` [Compound No. 10, 2-(4-Cinnamoylpiperazino)-4-amino-5,6-tetramethylenepyrimidine]: the inhibition in vivo at 50 mg/kg in the series with inflammation came out at 79.9%. The “Change of Blood Pressure at 3 Hours” value in the series with blood pressure (25 mg/kg p.o.) was -22 mmHg.
In the case of `C1CCc2c(nc(N3CCNCC3)nc2N2CCOCC2)C1` [compound 48, 2-Piperazino-4-morpholino-5,6-tetramethylenepyrimidine], the inhibition at 30 µM in series [1] (rabbit PRP, collagen 3 μg/ml) is 46%. Also, the inhibition in vivo at 30 mg/kg with blood sugar level stood at 95.9%.
